The supplement of paper PMC10307832

Legend:
Test in all cases: relative viability (nuclei count vs DMSO), 5 days (fraction); higher = more cells survive
[1] = compound: C1=CC2=NC=CN=C2C=C1/C=C/3\C(=O)NC(=O)S3 + Nc1ncn([C@H]2C[C@H](O)[C@@H](CO)O2)c(=O)n1 [Decitabine] (partner 2 µM)
How it was run: (§1)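 Five library-drug doses in √10 steps were combined with a fixed anchor-drug dose, or a single drug was given alone, by pin tool to lung cancer cell lines in 1536-well plates the day after seeding. Nuclei were stained and counted after 5 days. Relative viability is the nuclei count in treated wells over that in vehicle wells, taken as the median of duplicate plates.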

[2] = compound: C1=CC2=NC=CN=C2C=C1/C=C/3\C(=O)NC(=O)S3 + N=C(N)NC(=N)NCCc1ccccc1 [Phenformin] (partner 250 µM)
How it was run: as §1

[3] = compound: C1=CC2=NC=CN=C2C=C1/C=C/3\C(=O)NC(=O)S3 + CC(=O)Nc1cccc(-n2c(=O)n(C3CC3)c(=O)c3c(Nc4ccc(I)cc4F)n(C)c(=O)c(C)c32)c1 [Trametinib] (partner 0.02 µM)
How it was run: as §1

[4] = compound: CCN1CCN(c2ccc(Nc3cc(N(C)C(=O)Nc4c(Cl)c(OC)cc(OC)c4Cl)ncn3)cc2)CC1 [BGJ398] + CC1(C)CCC(c2ccc(Cl)cc2)=C(CN2CCN(c3ccc(C(=O)NS(=O)(=O)c4ccc(N[C@H](CCN5CCOCC5)CSc5ccccc5)c(S(=O)(=O)C(F)(F)F)c4)cc3)CC2)C1 [Navitoclax] (partner 0.5 µM)
How it was run: as §1

Cell Line | relative viability ([1]; first compound 0.02 µM) | relative viability ([1]; first compound 0.06325 µM) | relative viability ([1]; first compound 0.2 µM) | relative viability ([1]; first compound 0.6325 µM) | relative viability ([1]; first compound 2 µM) | relative viability ([2]; first compound 0.02 µM) | relative viability ([2]; first compound 0.06325 µM) | relative viability ([2]; first compound 0.2 µM) | relative viability ([2]; first compound 0.6325 µM) | relative viability ([2]; first compound 2 µM) | relative viability ([3]; first compound 0.02 µM) | relative viability ([3]; first compound 0.06325 µM) | relative viability ([3]; first compound 0.2 µM) | relative viability ([3]; first compound 0.6325 µM) | relative viability ([3]; first compound 2 µM) | relative viability ([4]; first compound 0.01 µM) | relative viability ([4]; first compound 0.03162 µM) | relative viability ([4]; first compound 0.1 µM) | relative viability ([4]; first compound 0.3162 µM) | relative viability ([4]; first compound 1 µM)
LC-2-ad | 0.781 | 0.862 | 0.84 | 0.86 | 0.727 | 0.61 | 0.601 | 0.655 | 0.578 | 0.417 | 0.884 | 0.991 | 0.931 | 0.972 | 0.83 | 0.366 | 0.575 | 0.519 | 0.612 | 0.392
CAL-12T |  |  |  |  |  | 0.577 | 0.479 | 0.562 | 0.517 | 0.546 | 0.398 | 0.301 | 0.426 | 0.309 | 0.271 | 1.12 | 1.38 | 1.37 | 1.08 | 1.13
RERF-LC-KJ | 0.596 | 0.726 | 0.681 | 0.632 | 0.628 | 0.399 | 0.467 | 0.406 | 0.392 | 0.418 | 0.815 | 0.878 | 0.88 | 0.738 | 0.62 | 0.98 | 1.09 | 0.901 | 1.06 | 0.936
NCI-H1650 | 0.425 | 0.375 | 0.47 | 0.36 | 0.347 | 0.442 | 0.392 | 0.503 | 0.432 | 0.385 | 0.541 | 0.595 | 0.686 | 0.559 | 0.63 | 0.859 | 1.04 | 0.649 | 0.699 | 0.817
BEN | 0.715 | 0.774 | 0.886 | 0.691 | 0.635 | 0.253 | 0.3 | 0.247 | 0.275 | 0.272 | 1.06 | 0.885 | 0.986 | 1.05 | 0.856 | 0.0852 | 0.15 | 0.0576 | 0.0618 | 0.0501
EMC-BAC-2 | 0.933 | 1.01 | 1.05 | 0.922 | 0.808 | 0.499 | 0.532 | 0.55 | 0.518 | 0.396 | 0.92 | 0.944 | 0.892 | 0.879 | 0.713 | 1.14 | 1.16 | 1.26 | 1.15 | 1.16
LU99A | 0.932 | 0.828 | 0.884 | 0.751 | 0.725 | 0.799 | 0.814 | 0.862 | 0.926 | 0.625 | 0.564 | 0.47 | 0.607 | 0.587 | 0.427 | 0.769 | 0.755 | 0.696 | 0.724 | 0.512
